# Reference: patent US20240317721A1, “PYRAZOLYL DERIVATIVES AS INHIBITORS OF THE KRAS MUTANT PROTEIN” (NOVARTIS AG, priority 2021, published 2024)
# Target: KRasG12C (M1-K169, biotinylated on the N-terminus) (Homo sapiens (Human), UniProt P01116, G12C)
# Test: Covalent competition assay: scintillation proximity assay (SPA) quantifying covalent modification of KRASG12C
# Format: binding
# Settings: competition with radiolabeled covalent probe (Compound B/Compound A), 2 hours incubation, 10 nM KRasG12C
# How it was run: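 Test compounds compete with a radiolabeled covalent probe for modification of N-terminally biotinylated KRasG12C(M1-K169):GDP, final 10 nM protein, 25 nM radio-ligand, 475 nM unlabelled ligand, 2 h with agitation in 20 mM Tris-HCl pH 7.5, 150 mM NaCl, 0.1 mM MgCl2, 0.01% Tween-20.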
row,Compound,IC50 [µM]
1,"C=CC(=O)N1CC2(CC(n3nc(N4CCC(C(=O)N5CCN(C)CC5)CC4(C)C)c(-c4c(Cl)c(Cl)cc5[nH]ncc45)c3C)C2)C1 (single isomer, unassigned) [Example 211b, 1-(6-(4-(5,6-dichloro-1H-indazol-4-yl)-3-(2,2-dimethyl-4-(4-methylpiperazine-1-carbonyl)piperidin-1-yl)-5-methyl-1H-pyrazol-1-yl)-2-azaspiro[3.3]heptan-2-yl)prop-2-en-1-one]",0.008
2,"C=CC(=O)N1CC2(CC(n3nc(N4CC[C@@H](CN5CCN(C6COC6)C6COCC65)CC4(C)C)c(-c4c(Cl)c(Cl)cc5[nH]ncc45)c3C)C2)C1 (single isomer, unassigned) [Example 281a, 1-(6-(4-(5,6-dichloro-1H-indazol-4-yl)-3-((R)-2,2-dimethyl-4-(((4aS*,7aR*)-4-(oxetan-3-yl)hexahydrofuro[3,4-b]pyrazin-1(2H)-yl)methyl)piperidin-1-yl)-5-methyl-1H-pyrazol-1-yl)-2-azaspiro[3.3]heptan-2-yl)prop-2-en-1-one]",1.67
3,"C=CC(=O)N1CC2(CC(n3nc(N4CCN(C5COC5)C[C@@]4(C)CC)c(-c4c(Cl)c(C)cc5[nH]ncc45)c3C)C2)C1 (single isomer, unassigned) [Example 143a]",> 5
4,"Cc1cc2[nH]ncc2c(-c2c(N3CCN(C4COC4)CC34CCC4)nn(C3CC4(C3)CN(C(=O)[C@@H]3CO3)C4)c2C)c1Cl [Example 139, (S)-(6-(4-(5-chloro-6-methyl-1H-indazol-4-yl)-5-methyl-3-(8-(oxetan-3-yl)-5,8-diazaspiro[3.5]nonan-5-yl)-1H-pyrazol-1-yl)-2-azaspiro[3.3]heptan-2-yl)(oxiran-2-yl)methanone]",0.45
5,"C=CC(=O)N1CC2(CC(n3nc(N4CCN(C[C@@H]5COCCO5)C[C@]4(C)CC)c(-c4c(Cl)c(C)cc5[nH]ncc45)c3C#N)C2)C1 [Example 176, 3-((S)-4-(((R)-1,4-dioxan-2-yl)methyl)-2-ethyl-2-methylpiperazin-1-yl)-1-(2-acryloyl-2-azaspiro[3.3]heptan-6-yl)-4-(5-chloro-6-methyl-1H-indazol-4-yl)-1H-pyrazole-5-carbonitrile]",< 0.005
6,"C=CC(=O)N1CC2(CC(n3nc(N4CCC(CN5CC6COCC6C5)CC4(C)C)c(-c4c(Cl)c(Cl)cc5[nH]ncc45)c3C)C2)C1 (single isomer, unassigned) [Example 226a, 1-(6-(4-(5,6-dichloro-1H-indazol-4-yl)-3-(2,2-dimethyl-4-((tetrahydro-1H-furo[3,4-c]pyrrol-5(3H)-yl)methyl)piperidin-1-yl)-5-methyl-1H-pyrazol-1-yl)-2-azaspiro[3.3]heptan-2-yl)prop-2-en-1-one]",0.119
7,"C=CC(=O)N1CC2(CC(n3nc(N4CCC(CN5CCOCC5)C4(C)C)c(-c4c(Cl)c(Cl)cc5[nH]ncc45)c3C)C2)C1 (single isomer, unassigned) [Example 219b, 1-(6-(4-(5,6-dichloro-1H-indazol-4-yl)-3-(2,2-dimethyl-3-(morpholinomethyl)pyrrolidin-1-yl)-5-methyl-1H-pyrazol-1-yl)-2-azaspiro[3.3]heptan-2-yl)prop-2-en-1-one]",0.042
8,"C=CC(=O)N1CC2(CC(n3nc(N4CCc5c(cnn5C)C4)c(-c4c(Cl)c(C)cc5[nH]ncc45)c3C)C2)C1 (single isomer, unassigned) [Example 11b, 1-(6-(4-(5-chloro-6-methyl-1H-indazol-4-yl)-5-methyl-3-(1-methyl-1,4,6,7-tetrahydro-5H-pyrazolo[4,3-c]pyridin-5-yl)-1H-pyrazol-1-yl)-2-azaspiro[3.3]heptan-2-yl)prop-2-en-1-one]",0.12
9,"C=CC(=O)N1CC2(CC(n3nc(N4CC[C@@H](CN5CCN(C(=O)CO)CC5)CC4(C)C)c(-c4c(Cl)c(Cl)cc5[nH]ncc45)c3C)C2)C1 (single isomer, unassigned) [Example 310a]",2.9
10,"C=CC(=O)N1CC2(CC(n3nc(N4CCN(C5COC5)C5COCC54)c(-c4c(Cl)c(C)cc5[nH]ncc45)c3C)C2)C1 (single isomer, unassigned) [Example 137b, 1-(6-(4-(5-chloro-6-methyl-1H-indazol-4-yl)-5-methyl-3-((4aS*,7aS*)-4-(oxetan-3-yl)hexahydrofuro[3,4-b]pyrazin-1(2H)-yl)-1H-pyrazol-1-yl)-2-azaspiro[3.3]heptan-2-yl)prop-2-en-1-one]",0.975
11,"C=CC(=O)N1CC2(CC(n3nc(N4CCN(CC(C)(C)O)C[C@@]4(C)CC)c(-c4c(Cl)c(C)cc5[nH]ncc45)c3C)C2)C1 (single isomer, unassigned) [Example 164a]",> 5
12,"C=CC(=O)N1CC2(CC(n3nc(N4CCN(C[C@@H]5COCCO5)C[C@@]4(C)C(F)F)c(-c4c(Cl)c(Cl)cc5[nH]ncc45)c3C)C2)C1 (single isomer, unassigned) [Example 105b]",0.019
13,"C=CC(=O)N1CC2(CC(n3nc(N4CCc5ncncc5C4)c(-c4c(Cl)c(C)cc5[nH]ncc45)c3C)C2)C1 (single isomer, unassigned) [Example 15b, 1-(6-(4-(5-chloro-6-methyl-1H-indazol-4-yl)-3-(7,8-dihydropyrido[4,3-d]pyrimidin-6(5H)-yl)-5-methyl-1H-pyrazol-1-yl)-2-azaspiro[3.3]heptan-2-yl)prop-2-en-1-one]",0.305

# Now from value to molecule:
row,IC50 [µM],Compound
1,0.076,"C=CC(=O)N1CC2(CC(n3nc(N4CCC(C)(O)CC4(C)C)c(-c4c(Cl)c(C)cc5[nH]ncc45)c3C)C2)C1 (single isomer, unassigned) [Example 28a, 1-(6-(4-(5-chloro-6-methyl-1H-indazol-4-yl)-3-(4-hydroxy-2,2,4-trimethylpiperidin-1-yl)-5-methyl-1H-pyrazol-1-yl)-2-azaspiro[3.3]heptan-2-yl)prop-2-en-1-one]"
2,0.007,"C=CC(=O)N1CC2(CC(n3nc(N4CC[C@@H](CN5CC6(CCN(C7COC7)C6)C5)CC4(C)C)c(-c4c(Cl)c(Cl)cc5[nH]ncc45)c3C)C2)C1 (single isomer, unassigned) [Example 267b]"
3,0.005,"C=CC(=O)N1CC2(CC(n3nc(N4CC[C@@H](CN5CCOC[C@@H]5CO)CC4(C)C)c(-c4c(Cl)c(Cl)cc5[nH]ncc45)c3C)C2)C1 (single isomer, unassigned) [Example 303b]"
4,2.4,"C=CC(=O)N1CC2(CC(n3nc(N4CC[C@@H](CN5CCN(C)[C@H](CO)C5)CC4(C)C)c(-c4c(Cl)c(Cl)cc5[nH]ncc45)c3C)C2)C1 (single isomer, unassigned) [Example 270a]"
5,0.007,"C=CC(=O)N1CC2(CC(n3nc(N4CC[C@@H](CN5CCN(C(=O)CO)CC5)CC4(C)C)c(-c4c(Cl)c(Cl)cc5[nH]ncc45)c3C)C2)C1 (single isomer, unassigned) [Example 310b]"
6,0.075,"C=CC(=O)N1CC2(CC(n3nc(N4CCC5C(CC(=O)N5C)C4)c(-c4c(Cl)c(C)cc5[nH]ncc45)c3C)C2)C1 (single isomer, unassigned) [Example 39b, 5-(1-(2-acryloyl-2-azaspiro[3.3]heptan-6-yl)-4-(5-chloro-6-methyl-1H-indazol-4-yl)-5-methyl-1H-pyrazol-3-yl)-1-methyloctahydro-2H-pyrrolo[3,2-c]pyridin-2-one]"
7,> 50,"C=CC(=O)N1CC2(CC(n3nc(N4CCc5cnn(C)c5C4)c(-c4c(Cl)c(C)cc5[nH]ncc45)c3C)C2)C1 (single isomer, unassigned) [Example 14a, 1-(6-(4-(5-chloro-6-methyl-1H-indazol-4-yl)-5-methyl-3-(1-methyl-1,4,5,7-tetrahydro-6H-pyrazolo[3,4-c]pyridin-6-yl)-1H-pyrazol-1-yl)-2-azaspiro[3.3]heptan-2-yl)prop-2-en-1-one]"
8,0.045,"C=CC(=O)N1CC2(CC(n3nc(N4CCN(C5COC5)CC4(CC)CC)c(-c4c(Cl)c(C)cc5[nH]ncc45)c3C)C2)C1 (single isomer, unassigned) [Example 152b, 1-(6-(4-(5-chloro-6-methyl-1H-indazol-4-yl)-3-(2,2-diethyl-4-(oxetan-3-yl)piperazin-1-yl)-5-methyl-1H-pyrazol-1-yl)-2-azaspiro[3.3]heptan-2-yl)prop-2-en-1-one]"
9,> 5,"C=CC(=O)N1CC2(CC(n3nc(N4CCN(C[C@@H]5COCCO5)C[C@@]4(CC)C(F)F)c(-c4c(Cl)c(C)cc5[nH]ncc45)c3C)C2)C1 (single isomer, unassigned) [Example 107a]"
10,> 5,"C=CC(=O)N1CC2(CC(n3nc(N4CC[C@@H](CN5CC6(C5)CS(=O)(=O)C6)CC4(C)C)c(-c4c(Cl)c(Cl)cc5[nH]ncc45)c3C)C2)C1 (single isomer, unassigned) [Example 248a]"
11,0.334,"C=CC(=O)N1CC2(CC(n3nc(N4[C@@H](C)CN(C(C)=O)C[C@@H]4C)c(-c4c(Cl)c(C)cc5[nH]ncc45)c3C)C2)C1 (single isomer, unassigned) [Example 56b]"
12,4.5,"C=CC(=O)N1CC2(CC(n3nc(N4CCN(C(C)(C)CO)CC45CCC5)c(-c4c(Cl)c(C)cc5[nH]ncc45)c3C)C2)C1 (single isomer, unassigned) [Example 190a, 1-(6-(4-(5-Chloro-6-methyl-1H-indazol-4-yl)-3-(8-(1-hydroxy-2-methylpropan-2-yl)-5,8-diazaspiro[3.5]nonan-5-yl)-5-methyl-1H-pyrazol-1-yl)-2-azaspiro[3.3]heptan-2-yl)prop-2-en-1-one]"
13,0.212,"C=CC(=O)N1CC2(CC(n3nc(N4CC(=O)N(C)CC45CCC5)c(-c4c(Cl)c(C)cc5[nH]ncc45)c3C)C2)C1 (single isomer, unassigned) [Example 65b, 5-(1-(2-acryloyl-2-azaspiro[3.3]heptan-6-yl)-4-(5-chloro-6-methyl-1H-indazol-4-yl)-5-methyl-1H-pyrazol-3-yl)-8-methyl-5,8-diazaspiro[3.5]nonan-7-one]"
14,0.039,"C=CC(=O)N1CC2(CC(n3nc(N4CCN(C5COC5)C[C@@]4(C)CC)c(-c4c(Cl)c(C)cc5[nH]ncc45)c3C)C2)C1 (single isomer, unassigned) [Example 143b]"
